Entries after “also recorded” stand apart in the source; their conditions may differ. Where two headings read alike, the source gives them in different places. Blank lines part the entries; values can stand above or below the molecule they belong to.
Tests used:
[1] = biological target: T1, Top1 (Homo sapiens, UniProt P11387); assay: Top1-mediated DNA cleavage assay; type: biochemical; parameters: key: 0: no inhibitory activity; +: between 20% and 50% activity; ++: between 50% and 75% activity; +++: between 75% and 95% activity; ++++: equipotent; +++++: more potent; conditions: graded relative to 1 μM camptothecin
T1 sequence (P11387 1-765): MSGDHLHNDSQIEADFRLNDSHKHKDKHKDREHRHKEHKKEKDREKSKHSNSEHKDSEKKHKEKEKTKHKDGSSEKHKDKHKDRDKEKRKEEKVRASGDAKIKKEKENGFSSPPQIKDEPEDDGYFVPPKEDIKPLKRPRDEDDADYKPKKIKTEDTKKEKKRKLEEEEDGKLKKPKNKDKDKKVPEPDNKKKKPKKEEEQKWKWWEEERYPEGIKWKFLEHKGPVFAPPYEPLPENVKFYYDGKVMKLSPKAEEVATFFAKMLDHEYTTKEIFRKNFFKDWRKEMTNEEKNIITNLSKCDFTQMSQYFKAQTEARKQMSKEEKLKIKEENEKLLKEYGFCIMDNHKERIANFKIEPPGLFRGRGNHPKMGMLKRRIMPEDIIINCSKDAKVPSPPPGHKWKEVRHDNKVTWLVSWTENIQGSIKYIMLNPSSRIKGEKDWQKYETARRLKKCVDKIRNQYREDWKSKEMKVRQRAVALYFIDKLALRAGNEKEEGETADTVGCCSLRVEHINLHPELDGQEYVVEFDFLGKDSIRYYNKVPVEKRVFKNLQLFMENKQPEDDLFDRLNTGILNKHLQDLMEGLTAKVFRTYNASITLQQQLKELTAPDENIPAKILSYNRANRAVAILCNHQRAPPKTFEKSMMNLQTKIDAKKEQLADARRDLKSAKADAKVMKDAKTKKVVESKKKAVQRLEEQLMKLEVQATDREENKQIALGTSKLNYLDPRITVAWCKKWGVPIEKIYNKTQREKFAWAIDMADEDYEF

[2] = test system: NCI panel of 60 human cancer cell lines; assay: Cytotoxicity mean-graph midpoint in NCI panel of 60 cancer cell lines; type: cell-based; conditions: for MGM (μM), cytotoxicity mean-graph midpoint: approximate average of GI50 across the panel
[3] = test system: LNCap cell cultures; assay: Cytotoxicity in LNCap cell cultures; type: cell-based; conditions: LNCap cell cultures (FIG. 3)
From the text: The excellent cytotoxicities of the DUPA conjugates served as an indication that the disulfide reduction and conversion of the intermediates to the base drugs (6 and 18) are occurring intracellularly. Although an increase in potency has not been observed yet, this encouraging result partially supported our initial hypothesis, and urged further optimization of the peptide linker to facilitate the drug releasing mechanism.

[4] = test system: 22RV1 cells; assay: cells; type: cell-based, human
Protocol: 22RV1 cells were seeded in 24-well (50000 cells/well) Falcon plates and allowed to form monolayers over a period of 24-48 h. The old medium was replaced with fresh medium (0.5 mL) containing increasing concentrations of drug (either targeted or non-targeted) and cells were incubated for an additional 2 h and 24 h (in the case of targeted drug) at 37° C. Cells were washed (3×0.5 mL) with fresh medium and incubated in fresh medium (0.5 mL) for another 66 h at 37° C. The spent medium in each well was replaced with fresh medium (0.5 mL) containing [^3H]-thymidine (1 mCi/mL), and the cells were incubated for additional 4 h at 37° C. to allow [^3H]-thymidine incorporation. The cells were then washed with medium (2×0.5 mL) and treated with 5% trichloroacetic acid (0.5 mL) for 10 min at room temperature. The trichloroacetic acid was replaced with 0.25 N NaOH (0.5 mL) and the cells were transferred to individual scintillation vials containing Ecolume scintillation cocktail (3.0 mL), mixed well to form homogeneous liquid, and counted in a liquid scintillation analyzer. IC50 values were calculated by plotting %[^3H]-thymidine incorporation versus log concentration of drugs (targeted and non-targeted) using in GraphPad Prism 4.
The IC50 value of the indenoisoquinoline 18 itself was 2.0 nM when determined after a 2 h incubation. […] An increase in potency of 86 relative to 18 was not observed. […] However, the potential value of the conjugate 86 is lack of cytotoxicity in “normal” cells, which would result in 86 being a less toxic anticancer drug.

[5] = test system: 22RV1 tumors; assay: 22RV1 xenograft-bearing mice therapy study; conditions: for tumor growth during the treatment period: alternate days; for tumor growth during the treatment period / toxicity to the animals: 3 days/week for 3 weeks; for toxicity to the animals / body weight during the treatment period: 40 nmol/mouse IP; for body weight during the treatment period: live mice, 3 days/week for 3 weeks (FIG. 6)
[6] = Water solubility at room temperature; type: physicochemical
[7] = test system: PSMA; conditions: PSMA ligand, literature value; cited from earlier work
[8] = Table 1, average of two determinations

Structure (SMILES): Br.COc1cc2c(cc1O)C(=O)c1c-2n(CCCN2CCOCC2)c(=O)c2cc([N+](=O)[O-])ccc12 [Compound 13, 9-Hydroxy-8-methoxy-6-(3-morpholinopropyl)-3-nitro-5H-indeno[1,2-c]isoquinoline-5,11(6H)-dione hydrobromide]
Top1 inhibitory activity ([1]; Table 1): ++ (between 50% and 75% activity) | MGM (μM), cytotoxicity mean-graph midpoint [2, 8]: 0.021 µM

Structure (SMILES): Br.COc1cc2c(cc1O)C(=O)c1c-2n(CCCn2ccnc2)c(=O)c2cc([N+](=O)[O-])ccc12 [Compound 14, 6-(3-(1H-Imidazol-1-yl)propyl)-9-hydroxy-8-methoxy-3-nitro-5H-indeno[1,2-c]isoquinoline-5,11(6H)-dione hydrobromide]
Top1 inhibitory activity ([1]; Table 1): + (between 20% and 50% activity) | MGM (μM), cytotoxicity mean-graph midpoint [2, 8]: 0.019 µM

Structure (SMILES): COc1ccc2c(c1)C(=O)c1c-2n(CCCNCCO)c(=O)c2cc([N+](=O)[O-])ccc12 [Compound 15]
Top1 inhibitory activity ([1]; Table 1): ++++ | MGM (μM), cytotoxicity mean-graph midpoint [2, 8]: 0.016 µM

Structure (SMILES): COc1cc2c(cc1O)C(=O)c1c-2n(CCCN2CCOCC2)c(=O)c2cc(OC)c(OC)cc12 [Compound 18]
Top1 inhibitory activity [1]: +++++ | GI50 ([2]; Homo sapiens, NCI's panel of 60 cancer cell lines, read-out: cytotoxicity mean-graph midpoint (MGM) GI50 value): 87 nM | IC50 ([4]; Homo sapiens, 2 h incubation, read-out: IC50): 2 nM | cytotoxicities [3]: low nanomolar range | tumor growth during the treatment period ([5]; 40 nmol/mouse (2.0 μmol/kg) IP): regression of tumor growth | toxicity to the animals [5]: toxic | body weight during the treatment period [5]: retained their normal body weights

Structure (SMILES): COc1ccc2c(c1)C(=O)c1c-2n(CCCNC(=O)OCCSSC[C@H](NC(=O)[C@H](CC(=O)O)NC(=O)[C@@H](N)CNC(=O)[C@H](Cc2ccccc2)NC(=O)[C@H](Cc2ccccc2)NC(=O)CCCCCCCNC(=O)CC[C@H](NC(=O)N[C@@H](CCC(=O)O)C(=O)O)C(=O)O)C(=O)O)c(=O)c2cc([N+](=O)[O-])ccc12 [Compound 84, (12R,15S,18S,22S,25S,39S,43S)-18-Amino-22,25-dibenzyl-15-(carboxymethyl)-1-(9-methoxy-3-nitro-5,11-dioxo-5,11-dihydro-6H-indeno[1,2-c]isoquinolin-6-yl)-5,14,17,21,24,27,36,41-octaoxo-6-oxa-9,10-dithia-4,13,16,20,23,26,35,40,42-nonaazapentatetracontane-12,39,43,45-tetracarboxylic acid]
cytotoxicities [3]: low nanomolar range | solubility in water [6]: dissolve completely and easily

Structure (SMILES): COc1cc2c3c(n(CCCN4CCOCC4)c(=O)c2cc1OC)-c1cc(OC)c(OC(=O)OCCSSC[C@H](NC(=O)[C@H](CC(=O)O)NC(=O)[C@@H](N)CNC(=O)[C@H](Cc2ccccc2)NC(=O)[C@H](Cc2ccccc2)NC(=O)CCCCCCCNC(=O)CC[C@H](NC(=O)N[C@@H](CCC(=O)O)C(=O)O)C(=O)O)C(=O)O)cc1C3=O [Compound 86, (8R,11S,14S,18S,21S,35S,39S)-14-Amino-18,21-dibenzyl-11-(carboxymethyl)-1,10,13,17,20,23,32,37-octaoxo-1-((2,3,8-trimethoxy-6-(3-morpholinopropyl)-5,11-dioxo-6,11-dihydro-5H-indeno[1,2-c]isoquinolin-9-yl)oxy)-2-oxa-5,6-dithia-9,12,16,19,22,31,36,38-octaazahentetracontane-8,35,39,41-tetracarboxylic Acid]
IC50 ([4]; 24-hour incubation, read-out: IC50): 11.4 nM | IC50 ([4]; 2 h incubation): no activity | cytotoxicities [3]: low nanomolar range | solubility in water [6]: dissolved easily | solubility in water ([6]; listed as 30): dissolve completely and easily | deaths of animals during the treatment period ([5]; 40 nmol/mouse (2.0 μmol/kg) IP, 5 mice per group): not lethal; also recorded: no deaths | tumor growth during the treatment period ([5]; 40 nmol/mouse (2.0 μmol/kg) IP): cessation of tumor growth | toxicity to the animals [5]: non-toxic | antitumor activity in competition group ([5]; 86 at 40 nmol/mouse IP plus PSMA competitor 28 in 10-fold excess): complete loss of activity | body weight during the treatment period [5]: retained their normal body weights

Structure (SMILES): O=C(O)CCC(NC(=O)NC(CCC(=O)O)C(=O)O)C(=O)O (stereo not drawn) [DUPA, 2-[3-(1,3-Dicarboxypropyl)-Ureido]Pentanedioic Acid]
IC50 [7]: 47 nM | Ki [7]: 8 nM

Structure (SMILES): COc1cc2c3c(n(CCCN4CCOCC4)c(=O)c2cc1OC)-c1cc2c(cc1C3=O)OCO2 [drawing 72]
Top1 inhibitory activity ([1]; Table 2): ++++ | MGM (μM), cytotoxicity mean-graph midpoint ([2]; Table 2): 4.64 µM

Structure (SMILES): COc1cc2c3c(n(CCCN4CCOCC4)c(=O)c2cc1OC)-c1cc2c(cc1C3=O)OCO2 [drawing 73]
Top1 inhibitory activity ([1]; Table 2): ++++ | MGM (μM), cytotoxicity mean-graph midpoint ([2]; Table 2): 0.079 µM

Second part, led by results:

Top1 inhibitory activity ([1]; Table 2): ++++
Structure (SMILES): NCCCn1c2c(c3ccc(Br)cc3c1=O)C(=O)c1cc3c(cc1-2)OCO3
MGM (μM), cytotoxicity mean-graph midpoint ([2]; Table 2): 0.329 µM

Top1 inhibitory activity ([1]; Table 2): ++++
Structure (SMILES): NCCCn1c2c(c3ccc([N+](=O)[O-])cc3c1=O)C(=O)c1cc3c(cc1-2)OCO3
MGM (μM), cytotoxicity mean-graph midpoint ([2]; Table 2): 0.090 µM

Top1 inhibitory activity ([1]; Table 1): ++++
Structure (SMILES): COc1ccc2c(c1)C(=O)c1c-2n(CCCN)c(=O)c2cc([N+](=O)[O-])ccc12 [Compound 6]
MGM (μM), cytotoxicity mean-graph midpoint [2, 8]: 0.047 µM | cytotoxicities [3]: low nanomolar range

Top1 inhibitory activity ([1]; Table 1): ++ (between 50% and 75% activity)
Structure (SMILES): Br.COc1cc2c(cc1O)C(=O)c1c-2n(CCCN)c(=O)c2cc([N+](=O)[O-])ccc12 [Compound 12, 6-(3-Aminopropyl)-9-hydroxy-8-methoxy-3-nitro-5H-indeno[1,2-c]isoquinoline-5,11(6H)-dione hydrobromide]
MGM (μM), cytotoxicity mean-graph midpoint [2, 8]: 0.019 µM

Top1 inhibitory activity ([1]; Table 1): ++++
Structure (SMILES): Cl.NCCCn1c2c(c3ccc([N+](=O)[O-])cc3c1=O)C(=O)c1cc3c(cc1-2)OCO3 [Compound 16, 6-(3-Aminopropyl)-5,6-dihydro-8,9-methylenedioxy-3-nitro-5,11-dioxo-11H-indeno[1,2-c]isoquinoline Hydrochloride]
MGM (μM), cytotoxicity mean-graph midpoint [2, 8]: 0.090 µM
